Among the data in patent US9623028B2, “Methods of treating a cancer using substituted pyrrolopyrimidine compounds, compositions thereof” (Signal Pharmaceuticals, LLC, priority 2014, dated 2017) are inhibition values, retold here.

Experiment [1] deals with CLK2 (Homo sapiens (Human), UniProt P49760). The experiment can be described thus: biochemical. The settings on record: read-out: CLK2 (% Inh.), % inhibition at 3 μM.
Experiment [2] concerns the target CLK1 (Homo sapiens (Human), UniProt P49759). Description: biochemical. The settings on record: read-out: CLK1 (% Inh.), % inhibition at 3 μM.

Sequence of CLK1 (P49759 whole entry): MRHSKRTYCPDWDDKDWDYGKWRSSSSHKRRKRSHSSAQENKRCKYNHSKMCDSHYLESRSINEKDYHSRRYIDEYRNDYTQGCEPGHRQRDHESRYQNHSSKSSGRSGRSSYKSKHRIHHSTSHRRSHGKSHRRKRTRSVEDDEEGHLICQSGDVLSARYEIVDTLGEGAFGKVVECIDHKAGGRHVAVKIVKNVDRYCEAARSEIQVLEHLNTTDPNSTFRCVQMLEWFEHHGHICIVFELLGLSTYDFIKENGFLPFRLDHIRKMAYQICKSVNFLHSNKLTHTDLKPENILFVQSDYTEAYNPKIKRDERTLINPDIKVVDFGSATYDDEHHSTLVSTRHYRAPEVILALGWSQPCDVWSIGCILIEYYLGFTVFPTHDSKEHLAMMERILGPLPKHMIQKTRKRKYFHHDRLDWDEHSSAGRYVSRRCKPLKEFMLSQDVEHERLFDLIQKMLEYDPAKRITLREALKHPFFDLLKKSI
Sequence of CLK2 (P49760 whole entry): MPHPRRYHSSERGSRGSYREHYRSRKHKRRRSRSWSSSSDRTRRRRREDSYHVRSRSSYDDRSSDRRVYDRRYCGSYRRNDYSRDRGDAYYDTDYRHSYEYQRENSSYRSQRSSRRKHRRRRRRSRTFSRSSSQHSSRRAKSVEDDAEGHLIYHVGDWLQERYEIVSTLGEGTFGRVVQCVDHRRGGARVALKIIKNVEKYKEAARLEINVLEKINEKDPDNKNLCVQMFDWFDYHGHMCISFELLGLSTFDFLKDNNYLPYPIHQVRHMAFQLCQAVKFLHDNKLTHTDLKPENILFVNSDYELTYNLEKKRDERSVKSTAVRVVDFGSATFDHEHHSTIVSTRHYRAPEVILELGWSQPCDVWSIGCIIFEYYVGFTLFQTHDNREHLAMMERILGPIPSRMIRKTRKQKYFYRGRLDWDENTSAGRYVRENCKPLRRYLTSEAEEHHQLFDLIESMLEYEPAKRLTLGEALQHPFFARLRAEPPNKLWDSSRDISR

As for `CNC(=O)c1ccc(Nc2nc(OC3CCCC3)c3c(-c4ccc(OC)c(OC)c4)c[nH]c3n2)c(OC)c1` [Compound 64, 4-(4-(cyclopentyloxy)-5-(3,4-dimethoxyphenyl)-7H-pyrrolo[2,3-d]pyrimidin-2-ylamino)-3-methoxy-N-methylbenzamide], the inhibition at 3 µM in experiment [1] worked out at 99%; in experiment [2], 68%.
For the molecule `Cc1nc2ccc(-c3c[nH]c4nc(Nc5cnn(C)c5C)nc(OC5CCCC5)c34)cc2o1` [Compound 296, 4-(cyclopentyloxy)-N-(1,5-dimethyl-1H-pyrazol-4-yl)-5-(2-methylbenzo[d]oxazol-6-yl)-7H-pyrrolo[2,3-d]pyrimidin-2-amine], the inhibition at 3 µM in experiment [1] is 104%; in experiment [2] it was 101%.
The matching figures for `CNC(=O)c1ccc(Nc2nc(OC3CCCC3)c3c(-c4cccnc4)c[nH]c3n2)c(OC)c1` [Compound 58, 4-(4-(cyclopentyloxy)-5-(pyridin-3-yl)-7H-pyrrolo[2,3-d]pyrimidin-2-ylamino)-3-methoxy-N-methylbenzamide]: 103% and 96%.
For `Cc1nc2ccc(-c3c[nH]c4nc(Nc5ccc(C(=O)N(C)C)cc5C)nc(O[C@H]5CCOC5)c34)cc2o1` [Compound 98, (S)-N,N,3-trimethyl-4-(5-(2-methylbenzo[d]oxazol-6-yl)-4-(tetrahydrofuran-3-yloxy)-7H-pyrrolo[2,3-d]pyrimidin-2-ylamino)benzamide] the same measures were 104% and 103%.
For `CNC(=O)c1ccc(Nc2nc(OCCOC)c3c(-c4ccc5nc(C)oc5c4)c[nH]c3n2)c(OC)c1` [Compound 139, 3-methoxy-4-(4-(2-methoxyethoxy)-5-(2-methylbenzo[d]oxazol-6-yl)-7H-pyrrolo[2,3-d]pyrimidin-2-ylamino)-N-methylbenzamide], the inhibition at 3 µM amounted to 99% in experiment [1] and 104% in experiment [2].
For `COc1nc(Nc2ccc(C(=O)N(C)C)cc2C)nc2[nH]cc(-c3ccncc3)c12` [Compound 89, 4-(4-methoxy-5-(pyridin-4-yl)-7H-pyrrolo[2,3-d]pyrimidin-2-ylamino)-N,N,3-trimethylbenzamide] the same measures were 100% and 101%.
On to `Cc1cc(C(=O)N(C)C)ccc1Nc1nc(OC2CCOCC2)c2c(-c3ccnc(C#N)c3)c[nH]c2n1` [Compound 140, 4-(5-(2-cyanopyridin-4-yl)-4-(tetrahydro-2H-pyran-4-yloxy)-7H-pyrrolo[2,3-d]pyrimidin-2-ylamino)-N,N,3-trimethylbenzamide], for which the inhibition at 3 µM in experiment [1] worked out at 103%; in experiment [2] it was 97%.
For `CNC(=O)c1ccc(Nc2nc(OC3CCC(C)(O)CC3)c3c(-c4ccc5nc(C)oc5c4)c[nH]c3n2)c(C)c1` (centres unmarked) [Compound 150, 4-(4-((1r,4r)-4-hydroxy-4-methylcyclohexyloxy)-5-(2-methylbenzo[d]oxazol-6-yl)-7H-pyrrolo[2,3-d]pyrimidin-2-ylamino)-N,3-dimethylbenzamide] the same measures were 111% and 99%.
The matching figures for `CNC(=O)c1ccc(Nc2nc(OC3CCC3)c3c(-c4ccc5nc(C)oc5c4)c[nH]c3n2)c(OC)c1` [Compound 198, 4-(4-cyclobutoxy-5-(2-methylbenzo[d]oxazol-6-yl)-7H-pyrrolo[2,3-d]pyrimidin-2-ylamino)-3-methoxy-N-methylbenzamide]: 100% and 93%.
For `CNC(=O)c1ccc(Nc2nc(OC(C)C)c3c(-c4ccc(-c5ncc[nH]5)cc4)c[nH]c3n2)c(OC)c1` [Compound 193, 4-(5-(4-(1H-imidazol-2-yl)phenyl)-4-isopropoxy-7H-pyrrolo[2,3-d]pyrimidin-2-ylamino)-3-methoxy-N-methylbenzamide] the same measures were 99% and 100%.
As for `CNC(=O)c1ccc(Nc2nc(O[C@H]3CCOC3)c3c(-c4ccc5nc(C)oc5c4)c[nH]c3n2)c(C)c1` [Compound 133, (S)-N,3-dimethyl-4-(5-(2-methylbenzo[d]oxazol-6-yl)-4-(tetrahydrofuran-3-yloxy)-7H-pyrrolo[2,3-d]pyrimidin-2-ylamino)benzamide], the inhibition at 3 µM amounted to 101% in experiment [1] and 104% in experiment [2].
For `CNC(=O)c1ccc(Nc2nc(NC(C)C)c3c(-c4ccc5nc(C)oc5c4)c[nH]c3n2)c(OC)c1` [Compound 202, 4-(4-(isopropylamino)-5-(2-methylbenzo[d]oxazol-6-yl)-7H-pyrrolo[2,3-d]pyrimidin-2-ylamino)-3-methoxy-N-methylbenzamide] the same measures were 99% and 99%.
The matching figures for `Cc1nc2ccc(-c3c[nH]c4nc(Nc5cnn(CC(C)(C)O)c5Cl)nc(OC5CCCC5)c34)cc2o1` [Compound 371, 1-(5-chloro-4-(4-(cyclopentyloxy)-5-(2-methylbenzo[d]oxazol-6-yl)-7H-pyrrolo[2,3-d]pyrimidin-2-ylamino)-1H-pyrazol-1-yl)-2-methylpropan-2-ol]: 100% and 100%.
Take `CNC(=O)c1ccc(Nc2nc(OC3CCOCC3)c3c(-c4ccc5nc(C)n(C)c5c4)c[nH]c3n2)c(OC)c1` [Compound 148, 4-(5-(1,2-dimethyl-1H-benzo[d]imidazol-6-yl)-4-(tetrahydro-2H-pyran-4-yloxy)-7H-pyrrolo[2,3-d]pyrimidin-2-ylamino)-3-methoxy-N-methylbenzamide]: the inhibition at 3 µM in experiment [1] came out at 106%; in experiment [2], 99%.
The matching figures for `CCOc1ccc(-c2c[nH]c3nc(Nc4ccc(C(=O)NC)cc4C)nc(O[C@H]4CCOC4)c23)cn1` [Compound 162, (S)-4-(5-(6-ethoxypyridin-3-yl)-4-(tetrahydrofuran-3-yloxy)-7H-pyrrolo[2,3-d]pyrimidin-2-ylamino)-N,3-dimethylbenzamide]: 106% and 100%.
As to `CC[C@H](C)Oc1nc(Nc2ccc(C(=O)NC)cc2OC)nc2[nH]cc(-c3ccc4nc(C)oc4c3)c12` [Compound 204, (S)-4-(4-sec-butoxy-5-(2-methylbenzo[d]oxazol-6-yl)-7H-pyrrolo[2,3-d]pyrimidin-2-ylamino)-3-methoxy-N-methylbenzamide], the figures for the inhibition at 3 µM in experiment [1] and in experiment [2] were 99% and 98%, respectively.
The matching figures for `CNC(=O)c1ccc(Nc2nc(OC3CCCC3)c3c(-c4ccc(O)cc4)c[nH]c3n2)c(C(C)C)c1` [Compound 11, 4-(4-(cyclopentyloxy)-5-(4-hydroxyphenyl)-7H-pyrrolo[2,3-d]pyrimidin-2-ylamino)-3-isopropyl-N-methylbenzamide]: 94% and 95%.
The matching figures for `CNC(=O)c1ccc(Nc2nc(OC(C)C)c3c(-c4ccnc(C)c4)c[nH]c3n2)c(OC)c1` [Compound 201, 4-(4-isopropoxy-5-(2-methylpyridin-4-yl)-7H-pyrrolo[2,3-d]pyrimidin-2-ylamino)-3-methoxy-N-methylbenzamide]: 103% and 100%.
The matching figures for `CNC(=O)c1ccc(-c2c[nH]c3nc(Nc4ccc(C(=O)NC)cc4Cl)nc(OC4CCOCC4)c23)cc1` [Compound 421, 3-chloro-N-methyl-4-(5-(4-(methylcarbamoyl)phenyl)-4-(tetrahydro-2H-pyran-4-yloxy)-7H-pyrrolo[2,3-d]pyrimidin-2-ylamino)benzamide]: 101% and 99%.
With `CNC(=O)c1ccc(Nc2nc(O[C@H]3CCOC3)c3c(-c4ccc5nc(C)oc5c4)c[nH]c3n2)c(OC)c1` [Compound 169, (S)-3-methoxy-N-methyl-4-(5-(2-methylbenzo[d]oxazol-6-yl)-4-(tetrahydrofuran-3-yloxy)-7H-pyrrolo[2,3-d]pyrimidin-2-ylamino)benzamide], the results for the inhibition at 3 µM in experiment [1] and in experiment [2] were 105% and 100%, respectively.
For `CNC(=O)c1ccc(Nc2nc(OC3CCOCC3)c3c(-c4ccc(-c5nc(C)c[nH]5)cc4)c[nH]c3n2)c(OC)c1` [Compound 207, 3-methoxy-N-methyl-4-(5-(4-(4-methyl-1H-imidazol-2-yl)phenyl)-4-(tetrahydro-2H-pyran-4-yloxy)-7H-pyrrolo[2,3-d]pyrimidin-2-ylamino)benzamide] the same measures were 99% and 99%.
For `CC[C@@H](C)Oc1nc(Nc2ccc(C(=O)NC)cc2OC)nc2[nH]cc(-c3ccc4nc(C)oc4c3)c12` [Compound 203, (R)-4-(4-sec-butoxy-5-(2-methylbenzo[d]oxazol-6-yl)-7H-pyrrolo[2,3-d]pyrimidin-2-ylamino)-3-methoxy-N-methylbenzamide] the same measures were 99% and 98%.
For `COc1cc(C(=O)N[C@H](C)CO)ccc1Nc1nc(OC2CCCC2)c2c(-c3ccc4nc(C)oc4c3)c[nH]c2n1` [Compound 214, (R)-4-(4-(cyclopentyloxy)-5-(2-methylbenzo[d]oxazol-6-yl)-7H-pyrrolo[2,3-d]pyrimidin-2-ylamino)-N-(1-hydroxypropan-2-yl)-3-methoxybenzamide] the same measures were 100% and 97%.
Take `CNC(=O)c1ccc(Nc2nc(NC3CCCC3)c3c(-c4ccc(O)cc4)c[nH]c3n2)c(OC)c1` [Compound 16, 4-(4-(cyclopentylamino)-5-(4-hydroxyphenyl)-7H-pyrrolo[2,3-d]pyrimidin-2-ylamino)-3-methoxy-N-methylbenzamide]: the inhibition at 3 µM in experiment [1] is 90%; in experiment [2], 92%.
For `CNC(=O)c1ccc(Nc2nc(OC(C)C)c3c(-c4ccnc(OC)c4)c[nH]c3n2)c(OC)c1` [Compound 185, 4-(4-isopropoxy-5-(2-methoxypyridin-4-yl)-7H-pyrrolo[2,3-d]pyrimidin-2-ylamino)-3-methoxy-N-methylbenzamide] the same measures were 106% and 98%.
